Laboratory results published in publication PMC8003779, “Determination of Cytotoxic Activity of Sanguinaria canadensis Extracts against Human Melanoma Cells and Comparison of Their Cytotoxicity with Cytotoxicity of Some Anticancer Drugs” (Molecules, 2021).
≈ marks a conversion by molar mass, not a printed value. Where two headings read alike, the source gives them in different places.

Assays:
G-361 cells = assay: Cell viability (MTT assay), G-361 melanoma cells; format: cell-based, human; details: for IC50: Homo sapiens, read-out: IC50 ± SD for Cell Viability, G-361
Excerpt: (§1) Cytotoxicity of the plant extracts, berberine, chelerythrine, chelidonine, protopine, and sanguinarine were examined against a panel of three melanoma cell lines (A375, G-361, SK-MEL-3) characterized by different degrees of genetic complexity. Human skin fibroblasts (CRL-1474) were used in order to evaluate the effect of Saguinaria canadensis extracts against normal (i.e., non-cancerous) cells. The investigated cell lines were obtained from American Type Culture Collection (ATCC; Manassas, VA, USA). A375 and CRL-1474 cells were cultured in Dulbecco’s Modified Eagle’s Medium (DMEM) (Sigma Aldrich, St. Louis, MO, USA), supplemented with 10% heat inactivated fetal bovine serum (FBS), penicillin (100 U/mL), and streptomycin (100 µg/mL). Human melanoma SK-MEL-3 and G-361 cells were maintained in McCoy’s 5A Medium (Sigma Aldrich, St. Louis, MO, USA) supplemented with 15% (for SK-MEL-3) or 10% (for G-361) FBS, penicillin (100 U/mL), and streptomycin (100 µg/mL). The cells were maintained at 37 °C in a 5% CO2 atmosphere. The dried plant extracts and standards ([…]) were dissolved in DMSO, in order to obtain stock solutions at concentrations of 50 mg/mL. At the day of the experiment, the suspension of cells (1 × 10^5 cells/mL) in the respective medium was applied to a 96-wellplate at 100 µL per well. After 24 h of incubation, the medium was removed from the wells and replaced by increasing concentrations of plant extracts or standards in medium containing 2% FBS. The control cells were only cultured with a medium containing 2% FBS. Cytotoxicity of DMSO was also checked at concentrations present in respective dilutions of stock solutions. After 24 h of incubation, 15 µL MTT working solution (5 mg/mL in PBS) was added to each well. The plate was incubated for 3 h. Subsequently, 100 µL of 10% SDS solution was added to each well. Cells were incubated overnight at 37 °C to dissolve the precipitated formazan crystals. The concentration of the dissolved formazan was evaluated by measuring the absorbance at λ = 570 nm, using a microplate reader (Epoch, BioTek Instruments, Inc., Winooski, VT, USA). Two independent experiments were performed in triplicates. The results of the MTT assay were expressed as mean ± SD. […] IC50 values of the investigated extracts and alkaloid standards were calculated using the IC50 calculator (www.IC50.tk (accessed on 22 January 2021)).
(§2) To determine the selectivity index (SI), IC50 values for human normal fibroblasts was obtained in the same conditions as that used for cancer cell lines. Selectivity index of each compound was determined by calculating the ratio of IC50 values obtained for human normal fibroblasts and cancer cell lines.

[1] = source not given; cited from earlier work
A375 cells = assay: Cell viability (MTT assay), A375 melanoma cells; format: cell-based, human; details: for IC50: Homo sapiens, read-out: IC50 ± SD for Cell Viability, A375
Excerpt: as §1, §2

SK-MEL-3 cells [2] = assay: Cell viability (MTT assay), SK-MEL-3 melanoma cells; format: cell-based, human; details: for IC50: Homo sapiens, read-out: IC50 ± SD for Cell Viability, SK-MEL-3
Excerpt: as §1, §2

[3] = tested on: melanoma cell lines (A375, G-361, SK-MEL-3); assay: Cell viability (MTT assay), all three melanoma cell lines taken together; format: cell-based, human
Excerpt: Cytotoxicity of the plant extracts, berberine, chelerythrine, chelidonine, protopine, and sanguinarine were examined against a panel of three melanoma cell lines (A375, G-361, SK-MEL-3) characterized by different degrees of genetic complexity. Human skin fibroblasts (CRL-1474) were used in order to evaluate the effect of Saguinaria canadensis extracts against normal (i.e., non-cancerous) cells. The investigated cell lines were obtained from American Type Culture Collection (ATCC; Manassas, VA, USA). A375 and CRL-1474 cells were cultured in Dulbecco’s Modified Eagle’s Medium (DMEM) (Sigma Aldrich, St. Louis, MO, USA), supplemented with 10% heat inactivated fetal bovine serum (FBS), penicillin (100 U/mL), and streptomycin (100 µg/mL). Human melanoma SK-MEL-3 and G-361 cells were maintained in McCoy’s 5A Medium (Sigma Aldrich, St. Louis, MO, USA) supplemented with 15% (for SK-MEL-3) or 10% (for G-361) FBS, penicillin (100 U/mL), and streptomycin (100 µg/mL). […] The concentration of the dissolved formazan was evaluated by measuring the absorbance at λ = 570 nm, using a microplate reader (Epoch, BioTek Instruments, Inc., Winooski, VT, USA). […] The results of the MTT assay were expressed as mean ± SD. […] IC50 values of the investigated extracts and alkaloid standards were calculated using the IC50 calculator (www.IC50.tk (accessed on 22 January 2021)).

SK-MEL-3 cells [4] = assay: Cell proliferation, BrdU incorporation assay; format: cell-based, human; details: 24 h incubation, 0.25–100 µg/mL
Method: The antiproliferative effect of S. canadensis extracts was measured by means of the BrdU assay, which indicates the rate of incorporation of 5′-bromo-2′-deoxy-uridine (BrdU) during DNA biosynthesis. In brief, SK-MEL-3 cells were plated in 96-well plates (NUNC, Roskilde, Denmark) at the density of 5 × 10^4 cells/mL. The next day, cells were exposed to increased concentrations (0.25–100 µg/mL) of S. canadensis extracts or cisplatin or a fresh culture medium. Cell proliferation was examined after 24 h incubation, according to the manufacturer’s protocol (Cell Proliferation ELISA BrdU, Roche Diagnostics GmbH, Penzberg, Germany). IC50 values of the investigated extracts and cisplatin were calculated using IC50 calculator [www.IC50.tk (accessed on 11 March 2021)].

[5] = G-361, MTT, 24 h exposure, medium with 2% FBS
[6] = A-375, MTT, 24 h exposure, medium with 2% FBS
[7] = SK-MEL3, MTT, 24 h exposure, medium with 2% FBS
[8] = MTT, 24 h exposure, medium with 2% FBS

Compound	IC50 (G-361 cells; [5]) [µg/mL]	Log P [1]	pKa [1]	IC50 (A375 cells; [6]) [µg/mL]	IC50 (SK-MEL-3 cells [2]; [7]) [µg/mL]	IC50 ± SD for Cell Viability, G-361 (G-361 cells; [8]) [µg/mL]	IC50 ± SD for Cell Viability, A375 (A375 cells; [8]) [µg/mL]	IC50 ± SD for Cell Viability, SK-MEL-3 (SK-MEL-3 cells [2]; [8]) [µg/mL]	also measured
COc1ccc2cc3[n+](cc2c1OC)CCc1cc2c(cc1-3)OCO2 [Berberine]	21 ± 3.25	−1.3	−4.4	51.6 ± 4.84	41 ± 5.36	–	–	–	–
COc1ccc2c(c[n+](C)c3c4cc5c(cc4ccc23)OCO5)c1OC [Chelerythrine]	0.46 ± 0.07	−0.88	−4.4	0.19 ± 0.04	0.14 ± 0.004	–	–	–	–
CN1Cc2c(ccc3c2OCO3)[C@@H]2[C@H]1c1cc3c(cc1C[C@@H]2O)OCO3 [Chelidonine]	–	2.05	5.73	–	–	–	–	–	IC50 (G-361 cells; G-361, 24 h): > 50 µg/mL; IC50 ([3]; Homo sapiens, 24 h, read-out: IC50, cell viability, across all tested melanoma cell lines, A375, G-361, SK-MEL-3): > 50 µg/mL; IC50 (A375 cells; A-375, 24 h): > 50 µg/mL; IC50 (SK-MEL-3 cells [2]; SK-MEL3, 24 h): > 50 µg/mL
N.N.[Cl][Pt][Cl] [Cisplatin]	–	–	–	–	–	11.53 ± 1.46	10.62 ± 1.04	14.42 ± 1.61	IC50 ± SD for Cell Proliferation Measured by BrdU Incorporation in SK-MEL-3 Cells (SK-MEL-3 cells [4]): 24.84 ± 3.60 µg/mL
COc1cc([C@@H]2c3cc4c(cc3[C@@H](O[C@@H]3O[C@@H]5CO[C@@H](C)O[C@H]5[C@H](O)[C@H]3O)[C@H]3COC(=O)[C@H]23)OCO4)cc(OC)c1O [Etoposide]	52.3 ± 3.86 (≈ 88.9 µM)	–	–	92.3 ± 4.58 (≈ 157 µM)	> 200	–	–	–	–
NC(=O)NO [Hydroxyurea]	–	–	–	–	–	>200	>200	>200	–
C[n+]1cc2c3c(ccc2c2ccc4cc5c(cc4c21)OCO5)OCO3 [Sanguinarine]	–	−0.94	−4.5	–	–	–	–	–	IC50 (G-361 cells; G-361, 24 h): 0.17 ± 0.02 µg/mL; IC50 (A375 cells; A-375, 24 h): 0.11 ± 0.003 µg/mL; IC50 (SK-MEL-3 cells [2]; SK-MEL3, 24 h): 0.54 ± 0.16 µg/mL
Protopine	–	2.59	4.95	–	–	>50	>50	>50	IC50, cell viability, across all tested melanoma cell lines ([3]; A375, G-361, SK-MEL-3, 24 h): more than 50 µg/mL
